Data reported in patent US20230391760A1, “HETEROCYCLIC GLP-1 AGONISTS” (Gasherbrum Bio, Inc., priority 2020, published 2023).

Biological target: GLP-1 Receptor (Homo sapiens, UniProt P43220)
Test: GLP-1R agonist cAMP stimulation assay (HEK293/GLP1R/CRE-LUC cells, cAMP dynamic 2 Kit)
Assay type: cell-based
Conditions: HEK293/CRE-Luc cell line stably expressing the GLP-1 Receptor, 30 min at 37° C.
Procedure: Activation of GLP-1 receptor is known to stimulate cyclic AMP (cAMP) production in cells which indicates primary coupling to the Gαs subunit of the G protein heterotrimeric complex. […] To optimize functional activity directed toward Gαs coupling, a HEK293/CRE-Luc cell line developed by HDB stably expressing the GLP-1 Receptor was used. 200×concentration of compound working solutions were prepared (Agilent Technologies Bravo) with 1/2 log serial dilution in 384-well Echo LDV plate (Labcyte, Cat #LP-0200). 50 nL/well 200× concentration of compound working solutions were moved to 384-well white low volume plate (Greiner,Cat #784075) using Labcyte ECHO550. 1×10^5 cells/mL HEK293/GLP1R/CRE-LUC(HD Biosciences) cell suspensions prepared with assay buffer[DPBS containing 0.5 mM IBMX(Sigma, Cat #15879) and 0.1% BSA (GENVIEW, Cat #FA016-100 g)], 10 uL cell suspensions were added to each well of previous generated assay plate which already contains 50 nl compound at 200×concentration using ThermoFisher Multidrop Combi (1000 cells/well). Seal the plate and incubate at 37° C. with 5% CO2 for 30 min. After incubation the cAMP assay signal was generated using cAMP dynamic 2 Kit (Cisbio). 5 μL cAMP-d2 working solution was added to each well, followed with 5 μL Anti-cAMP antibody-cryptate working solution added to each well using ThermoFisher Multidrop Combi. Incubate at room temperature for 1 hour protected from light.

Chain of GLP-1 Receptor (P43220 24-463, species assumed): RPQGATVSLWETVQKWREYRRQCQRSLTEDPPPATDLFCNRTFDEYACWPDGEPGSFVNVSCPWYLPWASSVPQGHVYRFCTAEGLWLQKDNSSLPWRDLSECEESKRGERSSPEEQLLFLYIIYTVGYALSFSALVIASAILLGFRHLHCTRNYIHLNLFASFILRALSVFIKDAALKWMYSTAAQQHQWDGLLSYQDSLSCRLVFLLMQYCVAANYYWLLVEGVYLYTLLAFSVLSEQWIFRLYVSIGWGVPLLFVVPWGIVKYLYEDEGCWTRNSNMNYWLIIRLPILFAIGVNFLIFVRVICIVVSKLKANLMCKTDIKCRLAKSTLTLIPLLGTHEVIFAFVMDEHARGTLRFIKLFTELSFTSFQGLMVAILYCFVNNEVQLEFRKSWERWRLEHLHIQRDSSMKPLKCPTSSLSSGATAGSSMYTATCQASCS

| SMILES | EC50 [nM] |
| --- | --- |
| O=C(O)c1ccc2c(c1)nc(CN1CC=C(c3cccc(OCc4ccc(Cl)cc4F)n3)CC1)n2C[C@@H]1CCO1 [Compound 111a, (S)-2-((6-((4-chloro-2-fluorobenzyl)oxy)-3′,6′-dihydro-[2,4′-bipyridin]-1′(2′H)-yl)methyl)-1-(oxetan-2-ylmethyl)-1H-benzo[d]imidazole-5-carboxylic acid] | 1.09 |
| C[C@H]1CN(c2ncc(F)c(OCc3ccc(Cl)cc3F)n2)CCN1Cc1nc2cc(-c3nnc(C(F)(F)F)[nH]3)ncc2n1C[C@@H]1CCO1 [Compound 489a, 4-[(4-chloro-2-fluorophenyl)methoxy]-5-fluoro-2-[(3S)-3-methyl-4-[(3-{[(2S)-oxetan-2-yl]methyl}-6-[5-(trifluoromethyl)-4H-1,2,4-triazol-3-yl]-3H-imidazo[4,5-c]pyridin-2-yl)methyl]piperazin-1-yl]pyrimidine] | 0.087 |
| CC1(c2ccc(Cl)cc2F)Oc2cccc(C3CCN(Cc4nc5cc(-c6noc(=O)[nH]6)cnc5n4C[C@H]4CCOC4)CC3)c2O1 (stereo partly drawn) [Compound 400a, 3-[2-({4-[2-(4-chloro-2-fluorophenyl)-2-methyl-2H-1,3-benzodioxol-4-yl]piperidin-1-yl}methyl)-3-{[(3R)-oxolan-3-yl]methyl}-3H-imidazo[4,5-b]pyridin-6-yl]-4,5-dihydro-1,2,4-oxadiazol-5-one] | 3.7 |
| CC1(c2ccc(Cl)cc2F)Oc2cccc(C3CCN(Cc4nc5cc(-c6nnc(C(F)(F)F)[nH]6)cnc5n4CC4(C#N)CC4)CC3)c2O1 (stereo not drawn) [Compound 254a, 1-{[2-({4-[2-(4-chloro-2-fluorophenyl)-2-methyl-2H-1,3-benzodioxol-4-yl]piperidin-1-yl}methyl)-6-[5-(trifluoromethyl)-4H-1,2,4-triazol-3-yl]-3H-imidazo[4,5-b]pyridin-3-yl]methyl}cyclopropane-1-carbonitrile] | 0.069 |
| Cc1cncc(C)c1C(=O)Nc1ccc2c(c1)nc(CN1CCC(c3cccc(OCc4ccc(Cl)cc4F)n3)CC1)n2C[C@@H]1CCO1 [Compound 191a, N-{2-[(4-{6-[(4-chloro-2-fluorophenyl)methoxy]pyridin-2-yl}piperidin-1-yl)methyl]-1-{[(2S)-oxetan-2-yl]methyl}-1H-1,3-benzodiazol-5-yl}-3,5-dimethylpyridine-4-carboxamide] | 8.8 |
| CC1OC2(C(=O)Nc3ccc4c(c3)nc(CN3CCC(c5cccc(OCc6ccc(Cl)cc6F)n5)CC3)n4C[C@@H]3CCO3)CCC1CC2 (stereo partly drawn) [Compound 198a, N-{2-[(4-{6-[(4-chloro-2-fluorophenyl)methoxy]pyridin-2-yl}piperidin-1-yl)methyl]-1-{[(2S)-oxetan-2-yl]methyl}-1H-1,3-benzodiazol-5-yl}-3-methyl-2-oxabicyclo[2.2.2]octane-1-carboxamide] | 12 |
| N#Cc1ccc(COc2cccc(C3=CCN(Cc4nc5cc(-c6noc(=O)[nH]6)cnc5n4C[C@@H]4CCO4)CC3)c2)c(F)c1 [Compound 318a, 3-fluoro-4-[(3-{1-[(3-{[(2S)-oxetan-2-yl]methyl}-6-(5-oxo-4,5-dihydro-1,2,4-oxadiazol-3-yl)-3H-imidazo[4,5-b]pyridin-2-yl)methyl]-1,2,3,6-tetrahydropyridin-4-yl}phenoxy)methyl]benzonitrile] | 10 |
| CC(=O)Nc1ccc2c(c1)nc(CN1CCC(c3cccc(OCc4ccc(Cl)cc4F)n3)CC1)n2C[C@@H]1CCO1 [Compound 101a, (S)—N-(2-((4-(6-((4-chloro-2-fluorobenzyl)oxy)pyridin-2-yl)piperidin-1-yl)methyl)-1-(oxetan-2-ylmethyl)-1H-benzo[d]imidazol-5-yl)acetamide] | 1.09 |
| FC(F)(F)c1nnc(-c2cc3nc(CN4CCC(c5cccc6c5OC[C@@H](c5ccc(Cl)cc5)O6)CC4)n(C[C@@H]4CCO4)c3cn2)[nH]1 [Compound 423a, 4-[(2R)-2-(4-chlorophenyl)-2,3-dihydro-1,4-benzodioxin-5-yl]-1-[(3-{[(2S)-oxetan-2-yl]methyl}-6-[5-(trifluoromethyl)-4H-1,2,4-triazol-3-yl]-3H-imidazo[4,5-c]pyridin-2-yl)methyl]piperidine] | 0.13 |
| CO[C@H](C)Cn1c(CN2CCC(c3cccc4c3OC(C)(c3ccc(Cl)cn3)O4)CC2)nc2cc(-c3nnc(C(F)(F)F)[nH]3)ncc21 (stereo partly drawn) [Compound 428a, 5-chloro-2-{4-[1-({3-[(2R)-2-methoxypropyl]-6-[5-(trifluoromethyl)-4H-1,2,4-triazol-3-yl]-3H-imidazo[4,5-c]pyridin-2-yl}methyl)piperidin-4-yl]-2-methyl-2H-1,3-benzodioxol-2-yl}pyridine] | 0.36 |
| O=C(Nc1ccc2c(c1)nc(CN1CCC(c3cccc(OCc4ccc(Cl)cc4F)n3)CC1)n2C[C@@H]1CCO1)c1ccccc1 [Compound 166a, N-{2-[(4-{6-[(4-chloro-2-fluorophenyl)methoxy]pyridin-2-yl}piperidin-1-yl)methyl]-1-{[(2S)-oxetan-2-yl]methyl}-1H-1,3-benzodiazol-5-yl}benzamide] | 0.14 |
| CNC(=O)Nc1ccc2c(c1)nc(CN1CCC(c3cccc(OCc4ccc(Cl)cc4F)n3)CC1)n2C[C@@H]1CCO1 [Compound 145a, 1-{2-[(4-{6-[(4-chloro-2-fluorophenyl)methoxy]pyridin-2-yl}piperidin-1-yl)methyl]-1-{[(2S)-oxetan-2-yl]methyl}-1H-1,3-benzodiazol-5-yl}-3-methylurea] | 0.16 |
| O=c1[nH]c(-c2cnc3c(c2)nc(CN2CC=C(c4cccc(OCc5ccc(Cl)cc5F)c4)CC2)n3C[C@@H]2CCO2)no1 [Compound 320a, 3-{2-[(4-{3-[(4-chloro-2-fluorophenyl)methoxy]phenyl}-1,2,3,6-tetrahydropyridin-1-yl)methyl]-3-{[(2S)-oxetan-2-yl]methyl}-3H-imidazo[4,5-b]pyridin-6-yl}-4,5-dihydro-1,2,4-oxadiazol-5-one] | 6.8 |
| N#Cc1ccc(COc2cc(C3=CCN(Cc4nc5cc(-c6noc(=O)[nH]6)cnc5n4C[C@@H]4CCO4)CC3)ccc2F)c(F)c1 [Compound 295a, 3-fluoro-4-[(2-fluoro-5-{1-[(3-{[(2S)-oxetan-2-yl]methyl}-6-(5-oxo-4,5-dihydro-1,2,4-oxadiazol-3-yl)-3H-imidazo[4,5-b]pyridin-2-yl)methyl]-1,2,3,6-tetrahydropyridin-4-yl}phenoxy)methyl]benzonitrile] | 2.6 |
| N#Cc1ccc(COc2cccc(C3=CCN(Cc4nc5cc(-c6noc(=O)[nH]6)cnc5n4C[C@@H]4CCO4)CC3)n2)c(F)c1 [Compound 322a, 3-fluoro-4-[({1′-[(3-{[(2S)-oxetan-2-yl]methyl}-6-(5-oxo-4,5-dihydro-1,2,4-oxadiazol-3-yl)-3H-imidazo[4,5-b]pyridin-2-yl)methyl]-1′,2′,3′,6′-tetrahydro-[2,4′-bipyridin]-6-yl}oxy)methyl]benzonitrile] | 0.078 |
| Cc1nnc(-c2ccc3c(c2)nc(CN2CCC(c4cccc5c4OC(C)(c4ccc(Cl)cn4)O5)CC2)n3C[C@@H]2CCO2)[nH]1 (stereo partly drawn) [Compound 271a, 2-({4-[2-(5-chloropyridin-2-yl)-2-methyl-2H-1,3-benzodioxol-4-yl]piperidin-1-yl}methyl)-5-(5-methyl-4H-1,2,4-triazol-3-yl)-1-{[(2S)-oxetan-2-yl]methyl}-1H-1,3-benzodiazole] | 0.34 |
| CC1(c2ccc(Cl)cc2F)Oc2cccc(C3CCN(Cc4nc5cc(-c6noc(=O)[nH]6)ccc5n4C[C@@H]4CCO4)CC3)c2O1 (single isomer, unassigned) [Compound 239b] | 0.04 |
| O=C(Nc1ccc2c(c1)nc(CN1CCC(c3cccc(OCc4ccc(Cl)cc4F)n3)CC1)n2C[C@@H]1CCO1)C1CCCOC1 (stereo partly drawn) [Compound 154a, N-{2-[(4-{6-[(4-chloro-2-fluorophenyl)methoxy]pyridin-2-yl}piperidin-1-yl)methyl]-1-{[(2S)-oxetan-2-yl]methyl}-1H-1,3-benzodiazol-5-yl}oxane-3-carboxamide] | 0.13 |
| CO[C@@H](C)Cn1c(CN2CCC(c3cccc4c3O[C@@](C)(c3ccc(Cl)cc3F)O4)CC2)nc2cc(-c3noc(=O)[nH]3)ncc21 [Compound 421a, 3-[2-({4-[(2S)-2-(4-chloro-2-fluorophenyl)-2-methyl-2H-1,3-benzodioxol-4-yl]piperidin-1-yl}methyl)-3-[(2S)-2-methoxypropyl]-3H-imidazo[4,5-c]pyridin-6-yl]-4,5-dihydro-1,2,4-oxadiazol-5-one] | 0.34 |
| CC(C(=O)Nc1ccc2c(c1)nc(CN1CCC(c3cccc(OCc4ccc(Cl)cc4F)n3)CC1)n2C[C@@H]1CCO1)n1ccnc1 (stereo partly drawn) [Compound 195a, N-{2-[(4-{6-[(4-chloro-2-fluorophenyl)methoxy]pyridin-2-yl}piperidin-1-yl)methyl]-1-{[(2S)-oxetan-2-yl]methyl}-1H-1,3-benzodiazol-5-yl}-2-(1H-imidazol-1-yl)propanamide] | 0.63 |
| CC1(c2ccc(F)cc2)Oc2cccc(C3CCN(Cc4nc5cc(-c6nnc(C(F)(F)F)[nH]6)ccc5n4C[C@@H]4CCO4)CC3)c2O1 (stereo partly drawn) [Compound 258a, 2-({4-[2-(4-fluorophenyl)-2-methyl-2H-1,3-benzodioxol-4-yl]piperidin-1-yl}methyl)-1-{[(2S)-oxetan-2-yl]methyl}-5-[5-(trifluoromethyl)-4H-1,2,4-triazol-3-yl]-1H-1,3-benzodiazole] | 0.16 |
